These results are taken from patent US20050014690A1, “Styryl acrylonitrile compounds and their use to promote myelopoiesis” (priority 2001, published 2005).

In data set [1] the test system is cells of the myeloid lineage. As to the kind of experiment: Promotion of myelopoiesis (general statement). The following applies: in vitro, ex vivo and in vivo.
Data set [2] deals with mice. As to the kind of experiment: Peripheral white blood cell count in mice. It counts as in vivo. The following applies: for white blood cell counts: mice injected daily, peripheral blood after 14 and 17 days, FIG. 9. How it is done:
Promotion of peripheral white blood cell count by CR11. Mice were injected daily with CR11. 250 μl of 400 μM CR11 was injected in PBS. Controls were injected with matching concentrations of CR11 solvent (DMSO) in PBS, or recombinant human G-CSF. After 14 and 17 days blood peripheral blood samples were taken and white blood cell counts determined. Results from each group were averaged.

Data set [3] deals with mice. As to the kind of experiment: Granulocytes in the spleen of treated mice. The data set is classed as in vivo.
The test system of another data set is transformed cell. Nature of the data set: Transformed cell growth. It counts as cell-based.
The subject of the next data set is normal bone marrow cells. Nature of the data set: CFU-GEMM colony assay, normal bone marrow, compound present for 14 days. The data set is classed as cell-based, human. The settings on record: for number of CFU-GM or CFU-C colonies: in vitro assays of human bone marrow cell growth, continual exposure for 14 days, about 1-20 μM. How it is done:
Treatment of normal bone marrow in culture with CR4. The CFU-GEMM assay was performed according to Fauser and Messner (Blood, 52(6) 1243-8,1978) and Messner and Fausser (Blut 41(5) 327-33, 1980) with some variations. In brief, heparinized bone marrow cells were layered over Percoll (1.077 gm/ml) and centrifuged at 400 g at 4° C. for 10 minutes to remove neutrophils and RBCs. The fractionated BM cells at 2×10^5 cells/ml were cultured in IMDM containing 0.9% (vol/vol) methylcellulose supplemented with 30% FCS or normal human plasma, a cocktail of cytokines containing G-CSF (10 ng/ml), IL-3 (40 U/ml), MGF (50 ng/ml), Erythropoietin (2u/ml) or TPO (10 ng/ml) and 5×10^−5M μ-2-mercaptoethanol. CR4 was added to the cells in concentrations indicated in FIG. 1 and the culture mixture was plated in 1 ml volumes into 35 mm petri dishes and incubated at 37° C., 5% CO2 in a humidified atmosphere. All cultures were evaluated at 14 days for the number of BFU-E colonies (defined as aggregates of more than 500 hemaglobinized cells or, 3 or more erythroid subcolonies), CFU-C colonies (defined as granulocyte or monocyte-macrophage cells or both), and CFU-GEMM colonies (a mixed population comprising of all elements). All control samples in this and other examples were treated with the matching concentration of the solvent (DMSO) for the compounds in the same medium or in the case of Example 21, PBS, as indicated. CFU-C stimulation with CR4 dose response. Bone marrow cells were prepared as in Example 15. CR4 was added to the cells at 10 or 20 μM. The culture mixture was plated in 1 ml volumes into 35 mm petri dishes and incubated at 37° C., 5% CO2 in a humidified atmosphere. All cultures were evaluated at 14 days for the number of CFU-C colonies (defined as granulocyte or monocyte-macrophage cells or both). […] Stimulation of CFU-C colony formation by CR11. Bone marrow cells were prepared as in Example 15. CR11 was added to the cells at 10 or 20 μM. The culture mixture was plated in 1 ml volumes into 35 mm petri dishes and incubated at 37° C., 5% […] in a humidified atmosphere. All cultures were evaluated at 14 days for the number of CFU-C colonies. […] CFU-C stimulation with CR19 dose response. Bone marrow cells were prepared as in Example 15. The culture mixture was plated in 1 ml volumes into 35 mm petri dishes and incubated at 37° C., 5% CO2 in a humidified atmosphere. All cultures were evaluated at 14 days for the number of BFU-E and CFU-C colonies.

Take `COc1cc(/C=C/C=C(\C#N)C(=O)NCc2ccccc2)ccc1O` [CR56, (E,E)-2-(benzylaminocarbonyl)-3-(3-methoxy-4-hydroxystyryl)acrylonitrile]: in data set [1], the promoting myelopoiesis result is reported as “capable of promoting myelopoiesis”.
On the same count and under the same terms, the result for `COc1cc(/C=C/C=C(C#N)C#N)cc(OC)c1O` [CR7, (E,E)-2-cyano-3-(3,5-dimethoxy-4-hydroxystyryl)acrylonitrile] reads “capable of promoting myelopoiesis”.
For `COc1cc(/C=C/C=C(\C#N)C(=O)NCc2ccc(O)c(O)c2)cc(OC)c1O` [CR11, (E,E)-2-(3,4-Dihydroxybenzylaminocarbonyl)-3-(3,5-dimethoxy-4-hydroxystyryl)acrylonitrile], the “white blood cells in the peripheral blood” value with mice [2] (SCI mouse model, similar kinetics to G-CSF treated mice) is listed as “Increased numbers”. Also, the “white blood cell counts” value with mice [2] is reported as “significantly increased”. For the same molecule, the promoting myelopoiesis result in data set [1] is “capable of promoting myelopoiesis”. In addition, the normal splenic granulocytes entry with mice [3] (daily injection, SCI mouse model) is on record as “tremendous increase”. In the data set with mice [3] (doses required to promote myelopoiesis, one month of continual administration), the “non-specific damage to the animal” value is listed as “did not result in detectable non-specific damage”. Besides, the transformed cell growth result in the data set on transformed cell is recorded as “do not promote”. In addition, the CFU-C colony formation entry in the data set on normal bone marrow cells (10 μM, 14 days) is on record as “elevated colony numbers slightly”; in the data set with normal bone marrow cells (20 μM, 14 days), “significantly increased”. Besides, in the data set on normal bone marrow cells (14 days, until concentrations of 20 μM or greater), the “toxicity to normal bone marrow cells” value is “minimal toxicity”. Moreover, in the data set on normal bone marrow cells, the “number of CFU-GM or CFU-C colonies” value is reported as “effective in increasing”.
On to `N#C/C(=C\C=C\c1ccccc1)C(=O)NCc1ccc(O)c(O)c1` [CR19, (E,E)-2-(3,4 Dihydroxybenzylaminocarbonyl)-3-styrylacrylonitrile], for which the promoting myelopoiesis entry in data set [1] was “capable of promoting myelopoiesis”. The transformed cell growth result in the data set with transformed cell was “do not promote”. The CFU-C colony formation entry in the data set with normal bone marrow cells (2.5 μM, 14 days, FIG. 8) was “significantly increased”. Also, the “number of CFU-GM or CFU-C colonies” value in the data set on normal bone marrow cells is listed as “effective in increasing”.
Regarding `COc1cc(/C=C/C=C(\C#N)C(=O)NCCc2ccccc2)cc(OC)c1O` [CR8, (E,E)-2-(Phenylethylamido)-3-(3,5-dimethoxy-4-hydroxystyryl)acrylonitrile], the promoting myelopoiesis result in data set [1] was “capable of promoting myelopoiesis”.

B1: G-CSF: recombinant human G-CSF (Granulocyte-Colony Stimulating Factor), injected as positive control (protein, UniProt P09919 31-207, looked up)
Granulocyte …: TPLGPASSLPQSFLLKCLEQVRKIQGDGAALQEKLVSECATYKLCHPEELVLLGHSLGIPWAPLSSCPSQALQLAGCLSQLHSGLFLYQGLLQALEGISPELGPTLDTLQLDVADFATTIWQQMEELGMAPALQPTQGAMPAFASAFQRRAGGVLVASHLQSFLEVSYRVLRHLAQP
Turning to B1, in the data set with mice [2], the “white blood cell counts” value was “significantly increased”.
